Measured values from patent US9949976B2, “Kinase inhibitor and use thereof” (Sihuan Pharmaceutical Holdings Group Ltd., priority 2013, dated 2018).

Assays:
[1] = PK in Colo-205 subcutaneous tumor model of BALB/c nude mouse; type: in vivo; settings: female, plasma, Colo-205 tumor-bearing nude mouse, PO QD 22 days, after last administration
Description: Test animal: female nude mouse (BALB/c), 8 mice/dose group/test compound, weight: 19-27 g/mouse.
COLO205 cancer cells were cultured in RPMI-1640 medium containing inactivated 10% fetal bovine serum, 100 U/mL penicillin, 100 μg/mL streptomycin and 2 mM glutamine, in a 37° C., 5% CO2 incubator. The initial concentration of cell culture was 5×10^5 cells/mL, and the cells were transferred to other bottles every 3 or 4 days and passaged. Tumor cells in exponential growth phase were used for in vivo tumor seeding.
COLO205 tumor cells suspended in PBS were seeded subcutaneously to right lateral thorax of experimental animal at 1×10^7 cells/0.1 mL, and the animal was sacrificed when the tumor grew to a volume of 800 mm^3 to 1000 mm^3; under aseptic conditions, tumors were peeled off, and necrotic tissues were removed; the well-grown tumor tissues were selected; the tumor cells were isolated and subjected to primary culture and proliferation, and then were subcutaneously seeded to animal. The tumor cells were passaged for two generations in mice by this method, and the primary culture cells were seeded subcutaneously to right lateral thorax of experimental animal, at 5×10^6 cells/0.1 mL per animal. When tumor grew to a volume of about 100 mm^3, the animals were grouped and administered. For oral administration, the administration volume is 0.1 mL/10 g body weight of animal.
Blood collection: blood was collected from intraocular canthus. After the last administration (22th Day) of control agent and compound 1, blood/tumor was collected at the same time points, wherein 8 nude mice for each dose group were divided into A and B groups
A group (No. 1-4): blood was collected at 15 min, 1 h and 2 h, and the mouse was sacrificed after blood collection at 2 h;
B group (No. 5-8): blood was collected at 4 h, 8 h and 24 h, and the mouse was sacrificed after blood collection at 24 h;
100 μL whole blood at each time point was collected and added to an anticoagulation tube containing K2EDTA, and centrifuged at 4500 r/min at 4° C. in a high speed centrifuge for 5 min to separate the plasma; the plasma was stored in a refrigerator at −80° C.
The plasma samples of control agent and compound 1 were analyzed by precipitation of protein: to 50 μL plasma, 150 μL internal standard (acetonitrile solution containing 50 ng/mL dexamethasone) was added; the resultant mixture was vortexed at 1500 r/min for 3 min, and centrifuged at 4000 r/min for 20 min; to 100 μL supernatant, 100 μL water was added; the resultant mixture was mixed homogeneously under vortexing and analyzed by LC-MS/MS.

[2] = Linear pharmacokinetics in rat (PO); type: in vivo, male SD rat; settings: for AUC(0-t) / Cmax / Tmax: male, SD, plasma
Description: Test animal: male SD rat, 3 rats/administration dose/test compound, weight: 200-240 g/rat.
100 μL whole blood was collected from caudal vein at each time point, added to an anticoagulation tube containing K2EDTA, and centrifuged at 8000 r/min in a high speed centrifuge for 6 min to separate the plasma; the plasma was stored in a refrigerator at −80° C.
The plasma samples of control agent and compound 1 were analyzed by precipitation of protein: to 30 μL plasma, 200 μL internal standard (acetonitrile solution containing 50 ng/mL PD0332991, the formula of which is
[drawing 62] prepared by referring to the method in Patent CN101001857A) was added; the resultant mixture was vortexed for 10 min at 1500 r/min, and centrifuged for 20 min at 4000 r/min; to 100 μL supernatant, 100 μL water was added; the resultant mixture was mixed homogeneously under vortexing and analyzed by LC-MS/MS.

[3] = PK in U-87MG subcutaneous tumor model of BALB/c nude mouse; type: in vivo; settings: female, plasma, U87MG tumor-bearing nude mouse, PO QD 3 weeks, after last administration (Day 22)
Description: Test animal: female nude mouse (BALB/c), 10 mice/dose group/test compound, weight: 18-22 g/mouse.
U87MG cells from ATCC were cultured in MEM medium containing 10% fetal bovine serum; the cells were digested with trypsin containing EDTA by conventional methods; the cells were passaged for two generations every week, and were continuously cultured in a 37° C., 5% CO2 incubator.
Tumor cells in exponential growth phase were collected; U87MG cells were adjusted with PBS and matrigel at a ratio of 1:1 to a concentration of 5×10^7/mL; 0.1 mL cell suspension was seeded subcutaneously to right back of each mouse by injection with a 1 mL syringe. Tumor volumes were observed and measured, and the average tumor volume of U87MG reached about 200 mm^3 8 days after seeding; the tumor-bearing mice were grouped and were treated by oral administration of test compounds, at a dose of 0.1 mL/10 g body weight.
Blood collection: blood was collected from intraocular canthus. After the last administration (Day 22) of control agent and compound 1, blood/tumor was collected at the same time points, wherein as to 10 nude mice for each dose group, one was for standby, and the other 9 mice were divided into three groups, i.e., A, B and C groups.
A group (No. 1-3): blood was collected before administration, and at 1 h and 2 h after administration, and the mouse was sacrificed after blood collection at 2 h;
B group (No. 4-6): blood was collected at 15 min, 4 h and 6 h after administration, and the mouse was sacrificed after blood collection at 6 h;
C group (No. 7-9): blood was collected at 30 min, 10 h and 24 h after administration, and the mouse was sacrificed after blood collection at 24 h;
300 μL whole blood was collected at each time point, added to an anticoagulation tube containing K2EDTA, and centrifuged at 8000 r/min in a high speed centrifuge for 6 min to separate the plasma; the plasma was stored in a refrigerator at −80° C.
The plasma samples of control agent and compound 1 were analyzed by precipitation of protein: 30 μL plasma was added to a 96-deep well plate, and 200 μL internal standard (acetonitrile solution containing 25 ng/mL PD0332991) was added; the resultant mixture was vortexed for 3 min at 1500 r/min, and centrifuged for 20 min at 4000 r/min; to 100 μL supernatant, 100 μL water was added; the resultant mixture was mixed homogeneously under vortexing and analyzed by LC-MS/MS.

Row | Compound | AUC(0-t) ([1]; 25 mg/kg) | Cmax ([1]; 25 mg/kg) | Tmax ([1]; 25 mg/kg) | AUC(0-t) ([1]; 100 mg/kg) | Cmax ([1]; 100 mg/kg) | Tmax ([1]; 100 mg/kg) | AUC(0-t) ([2]; 15 mg/kg) | Cmax ([2]; 15 mg/kg) | Tmax ([2]; 15 mg/kg) | AUC(0-t) ([2]; 45 mg/kg) | Cmax ([2]; 45 mg/kg) | Tmax ([2]; 45 mg/kg) | AUC(0-t) ([2]; 135 mg/kg) | Cmax ([2]; 135 mg/kg) | Tmax ([2]; 135 mg/kg) | AUC(0-t) ([3]; 50 mg/kg) | Cmax ([3]; 50 mg/kg) | Tmax ([3]; 50 mg/kg) | AUC(0-t) ([3]; 100 mg/kg) | Cmax ([3]; 100 mg/kg) | further results
1 | CCN1CCN(Cc2cnc(Nc3cc(-c4cc(F)c5nc(C)n(C(C)C)c5c4)c(F)cn3)nc2)CC1 [Compound 1, 5-((4-ethylpiperazin-1-yl)methyl)-N-(5-fluoro-4-(4-fluoro-1-isopropyl-2-methyl-1H-benzo[d]imidazol-6-yl)pyridin-2-yl)pyrimidin-2-amine] | 12300 ng·h/mL | 1140 ng/mL | 2 h | 48300 ng·h/mL | 2420 ng/mL | 8 h | 12600 ng·h/mL | 941 ng/mL | 4 h | 37700 ng·h/mL | 1580 ng/mL | 4 h | 136000 ng·h/mL | 2410 ng/mL | 24 h | 23500 ng·h/mL | 1770 ng/mL | 2 h | 34800 ng·h/mL | 2180 ng/mL | linear pharmacokinetic properties ([2]; 15-135 mg/kg, AUClast increases with dose in a linear manner): good linear pharmacokinetic properties; Tmax ([3]; 100 mg/kg): 1 h; AUC(0-t) ([3]; 200 mg/kg): 49700 ng·h/mL; Cmax ([3]; 200 mg/kg): 2510 ng/mL; Tmax ([3]; 200 mg/kg): 6 h
2 | CCN1CCN(Cc2ccc(Nc3ncc(F)c(-c4cc(F)c5nc(C)n(C(C)C)c5c4)n3)nc2)CC1 [LY2835219, reference compound] | 9120 ng·h/mL | 733 ng/mL | 4 h | 23000 ng·h/mL | 1080 ng/mL | 8 h | 9690 ng·h/mL | 504 ng/mL | 4 h | 32600 ng·h/mL | 860 ng/mL | 4 h | 97600 ng·h/mL | 1370 ng/mL | 24 h | 19400 ng·h/mL | 1160 ng/mL | 1 h | 27900 ng·h/mL | 1530 ng/mL | Tmax ([3]; 100 mg/kg): 4 h
